Data on six compounds can be found in ChEMBL document CHEMBL5380843 (J Med Chem, 2023).

Structures are written as SMILES.

Series [1] concerns Human immunodeficiency virus 1. Kind of series: Antiviral activity against wild type HIV-1 IIIB harboring reverse transcriptase K103N mutant infected in human MT4 cells assessed as protection against virus-induced cytopathic effect incubated for 5 days by MTT assay. In kind it is functional, organism-based. The following applies: Human immunodeficiency virus 1, IIIB, MT4, 120 h.

Series [2] in a line: Resistant factor, ratio of EC50 for antiviral activity against HIV-1 IIIB harboring reverse transcriptase K103N mutant to EC50 for antiviral activity against wild type HIV-1 IIIB. In kind it is functional.
Series [3] is described as follows: Cytotoxicity against human MT4 cells assessed as reduction in cell viability incubated for 5 days by MTT assay. In kind it is toxicity, cell-based. As to conditions: time 5 day. On the technique in general: Tetrazolium dyes change colour on reduction, which living cells bring about.
Series [4] has as its system Human immunodeficiency virus 1. As to the kind of experiment: Antiviral activity against wild type HIV-1 IIIB harboring reverse transcriptase E138K mutant infected in human MT4 cells assessed as protection against virus-induced cytopathic effect incubated for 5 days by MTT assay. As to conditions: Human immunodeficiency virus 1, IIIB, MT4, 120 h. In kind it is functional, organism-based. Background: Damage to the host cells serves as the signal in cytopathic effect assays.

Series [5] in a line: Resistant factor, ratio of EC50 for antiviral activity against HIV-1 IIIB harboring reverse transcriptase Y181C mutant to EC50 for antiviral activity against wild type HIV-1 IIIB. In kind it is functional.
Series [6] concerns Human immunodeficiency virus 1. As to the kind of experiment: Antiviral activity against wild type HIV-1 IIIB harboring reverse transcriptase Y188L mutant infected in human MT4 cells assessed as protection against virus-induced cytopathic effect incubated for 5 days by MTT assay. In kind it is functional, organism-based. As to conditions: Human immunodeficiency virus 1, IIIB, MT4, 120 h.

Series [7] has as its system Human immunodeficiency virus 1. As to the kind of experiment: Antiviral activity against wild type HIV-1 IIIB harboring reverse transcriptase Y181C mutant infected in human MT4 cells assessed as protection against virus-induced cytopathic effect incubated for 5 days by MTT assay. As to conditions: Human immunodeficiency virus 1, IIIB, MT4, 120 h. In kind it is functional, organism-based.

Series [8] concerns Human immunodeficiency virus 1. Kind of series: Antiviral activity against wild type HIV-1 IIIB infected in human MT4 cells assessed as protection against virus-induced cytopathic effect incubated for 5 days by MTT assay. In kind it is functional, organism-based. As to conditions: Human immunodeficiency virus 1, IIIB, MT4, 120 h.
The target of series [9] is Human immunodeficiency virus type 1 reverse transcriptase (Human immunodeficiency virus 1, UniProt Q72547). Kind of series: Inhibition of recombinant wild type HIV-1 reverse transcriptase using DNA/RNA as substrate incubated for 40 mins by Pico-green dye based spectrofluorometric analysis.
The nature of series [10]: Selectivity index, ratio of CC50 for cytotoxicity against human MT4 cells to EC50 for antiviral activity against wild type HIV-1 IIIB infected in human MT4 cells. In kind it is toxicity, cell-based. The following applies: read-out: Ratio CC50/EC50.
The test system of series [11] is Human immunodeficiency virus 1. As to the kind of experiment: Antiviral activity against wild type HIV-1 IIIB harboring reverse transcriptase […] mutant infected in human MT4 cells assessed as protection against virus-induced cytopathic effect incubated for 5 days by MTT assay. In kind it is functional, organism-based. As to conditions: Human immunodeficiency virus 1, IIIB, MT4, 120 h.

A short description of series [12]: Resistant factor, ratio of EC50 for antiviral activity against HIV-1 IIIB harboring reverse transcriptase […] mutant to EC50 for antiviral activity against wild type HIV-1 IIIB. In kind it is functional.
Series [13] in a line: Resistant factor, ratio of EC50 for antiviral activity against HIV-1 IIIB harboring reverse transcriptase E138K mutant to EC50 for antiviral activity against wild type HIV-1 IIIB. In kind it is functional.
Series [14] in a line: Resistant factor, ratio of EC50 for antiviral activity against HIV-1 IIIB harboring reverse transcriptase Y188L mutant to EC50 for antiviral activity against wild type HIV-1 IIIB. In kind it is functional.

In the case of `Cc1cc(-c2ccc(C#N)cc2)cc(C)c1Oc1nc(Nc2ccc(C#N)cc2)ncc1C(=O)NC(C)C`, the EC50 in series [1] came to 82 nM; in series [4] it was 71 nM; in series [6] it was 563 nM; in [7] it was 334 nM; in series [8], 37 nM; in series [11], 144 nM. The “Ratio EC50” value in series [2] was 2.2; in series [5], 9; in [12], 3.9; in [13], 1.9; in [14] it was 15. The CC50 at 120 h in [3] was 64700 nM. For the same compound, the IC50 in [9] amounted to 199 nM. The selectivity ratio in series [10] was found to be 1750.
For the compound `Cc1cc(-c2ccc(C#N)cc2)cc(C)c1Oc1nc(Nc2ccc(C#N)cc2)ncc1C(=O)NC1CC1`, the EC50 was determined as 32 nM in [1]; 31 nM in [4]; 209 nM in series [6]; 157 nM in series [7]; 11 nM in series [8]; 51 nM in series [11]. The “Ratio EC50” value in [2] stood at 2.9; in series [5] it was 14; in series [12] it was 4.6; in series [13], 2.8; in [14] it was 19. Also, the CC50 at 120 h in series [3] was found to be 116000 nM. Also, the IC50 in [9] was 111 nM. For the same compound, in [10], the selectivity ratio is 10600.
For the compound `Cc1cc(-c2ccc(C#N)cc2)cc(C)c1Oc1nc(Nc2ccc(C#N)cc2)ncc1C(=O)NCC1CC1`, the 50% effective concentration (EC50) in [1] is 445 nM; in series [4], 248 nM; in [6], 1900 nM; in series [7], 1160 nM; in series [8], 102 nM; in series [11], 872 nM. The “Ratio EC50” value was found to be 4.4 in series [2]; 11 in series [5]; 8.5 in [12]; 2.4 in series [13]; 19 in [14]. In addition, the CC50 at 120 h in series [3] came to 210000 nM. Moreover, in [9], the IC50 was 294 nM. In [10], the selectivity ratio is 2060.
As to `CCNC(=O)c1cnc(Nc2ccc(C#N)cc2)nc1Oc1c(C)cc(-c2ccc(C#N)cc2)cc1C`, the EC50 stood at 13 nM in [1]; 28 nM in series [4]; 95 nM in series [6]; 68 nM in series [7]; 6 nM in [8]; 25 nM in [11]. Further, the “Ratio EC50” value is recorded as 1.9 in series [2]; 10 in [5]; 3.7 in series [12]; 4.2 in series [13]; 14 in [14]. Besides, in series [3], the CC50 at 120 h stood at 151000 nM. In series [9], the IC50 amounted to 135 nM. Besides, the selectivity ratio in series [10] was determined as 22500.
With `Cc1cc(-c2ccc(C#N)cc2)cc(C)c1Oc1nc(Nc2ccc(C#N)cc2)ncc1C(=O)NC1CCC1`, the EC50 in series [1] amounted to 308 nM; in series [4] it was 171 nM; in [6], 1320 nM; in series [7], 1020 nM; in series [8] it was 65 nM; in series [11] it was 396 nM. Moreover, the “Ratio EC50” value in series [2] amounted to 4.7; in [5] it was 16; in [12] it was 6.1; in [13], 2.6; in series [14], 20. The CC50 at 120 h in series [3] is more than 243000 nM. The IC50 in series [9] was found to be 327 nM. In addition, in series [10], the selectivity ratio is more than 3750.
With `CCCNC(=O)c1cnc(Nc2ccc(C#N)cc2)nc1Oc1c(C)cc(-c2ccc(C#N)cc2)cc1C`, the EC50 in series [1] turned out to be 31 nM; in series [4], 39 nM; in series [6], 275 nM; in [7], 196 nM; in series [8] it was 13 nM; in series [11], 55 nM. The “Ratio EC50” value in series [2] was determined as 2.4; in [5], 15; in series [12], 4.2; in series [13], 3; in series [14], 21. For the same compound, the CC50 at 120 h in series [3] was 86600 nM. Further, the IC50 in series [9] came out at 191 nM. Further, the selectivity ratio in series [10] came to 14700.

For orientation: EC50 means the concentration at which the effect is half-maximal. The term CC50 denotes the concentration that lowers cell viability or growth by half. Usually IC50 stands for the concentration that inhibits the measured activity by half.
